# Data as given in patent publication US7211424B1, “Mammalian Subtilisin/kexin isozyme SKI-1: a proprotein convertase with a unique cleavage specificity” (Institut de Recherches Cliniques de Montreal, priority 1999, dated 2007).
# Where two headings read alike, the source gives them in different places.
# T1: SKI-1 (Homo sapiens, UniProt Q14703)
# T1 sequence (Q14703 187-1052): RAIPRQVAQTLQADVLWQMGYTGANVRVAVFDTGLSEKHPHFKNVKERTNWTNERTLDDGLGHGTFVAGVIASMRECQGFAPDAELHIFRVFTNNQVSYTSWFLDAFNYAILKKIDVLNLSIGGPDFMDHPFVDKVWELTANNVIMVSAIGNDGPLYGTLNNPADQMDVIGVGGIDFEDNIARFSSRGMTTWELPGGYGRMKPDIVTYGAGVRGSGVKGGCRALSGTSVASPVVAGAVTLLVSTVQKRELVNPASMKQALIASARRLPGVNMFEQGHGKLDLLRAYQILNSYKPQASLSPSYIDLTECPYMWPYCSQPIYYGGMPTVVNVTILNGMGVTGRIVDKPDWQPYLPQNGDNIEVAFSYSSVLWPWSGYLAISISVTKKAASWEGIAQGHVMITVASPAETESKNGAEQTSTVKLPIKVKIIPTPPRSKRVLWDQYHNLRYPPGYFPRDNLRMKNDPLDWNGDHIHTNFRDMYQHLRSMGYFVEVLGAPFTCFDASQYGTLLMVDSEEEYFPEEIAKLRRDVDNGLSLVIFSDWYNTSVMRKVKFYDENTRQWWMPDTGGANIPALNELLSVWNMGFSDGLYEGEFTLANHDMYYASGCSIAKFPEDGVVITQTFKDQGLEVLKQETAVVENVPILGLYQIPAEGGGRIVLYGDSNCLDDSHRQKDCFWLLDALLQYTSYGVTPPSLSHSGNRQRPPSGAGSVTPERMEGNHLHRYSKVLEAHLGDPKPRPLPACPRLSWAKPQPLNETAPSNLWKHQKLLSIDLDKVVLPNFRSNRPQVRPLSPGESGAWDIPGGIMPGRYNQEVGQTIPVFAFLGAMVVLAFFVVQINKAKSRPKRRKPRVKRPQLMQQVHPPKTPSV
# T2: SKI-1 (Homo sapiens, UniProt Q14703)
# T2 sequence (Q14703 187-998 limits assumed): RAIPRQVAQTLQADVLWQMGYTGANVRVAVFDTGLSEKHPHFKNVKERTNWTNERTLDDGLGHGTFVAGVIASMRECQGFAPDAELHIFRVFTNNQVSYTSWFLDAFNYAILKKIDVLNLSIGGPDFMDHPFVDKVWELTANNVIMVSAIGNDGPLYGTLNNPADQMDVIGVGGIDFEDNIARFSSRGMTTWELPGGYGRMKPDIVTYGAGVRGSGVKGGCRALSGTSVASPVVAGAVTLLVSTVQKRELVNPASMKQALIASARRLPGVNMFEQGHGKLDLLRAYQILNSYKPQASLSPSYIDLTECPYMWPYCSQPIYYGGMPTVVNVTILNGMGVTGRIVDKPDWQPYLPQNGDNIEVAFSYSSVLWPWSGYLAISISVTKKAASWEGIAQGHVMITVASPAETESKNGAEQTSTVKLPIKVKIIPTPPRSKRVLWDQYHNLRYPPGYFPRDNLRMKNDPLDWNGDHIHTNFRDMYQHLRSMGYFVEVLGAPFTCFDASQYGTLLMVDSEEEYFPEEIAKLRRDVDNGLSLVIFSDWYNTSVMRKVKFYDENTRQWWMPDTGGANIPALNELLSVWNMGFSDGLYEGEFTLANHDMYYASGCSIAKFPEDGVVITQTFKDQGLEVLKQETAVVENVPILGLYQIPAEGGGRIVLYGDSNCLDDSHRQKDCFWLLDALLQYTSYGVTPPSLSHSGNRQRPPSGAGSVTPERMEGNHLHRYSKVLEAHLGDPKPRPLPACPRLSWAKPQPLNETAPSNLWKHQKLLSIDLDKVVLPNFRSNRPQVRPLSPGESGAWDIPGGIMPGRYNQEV
# T3: BTMD-hSKI-1 (Homo sapiens, UniProt Q14703)
# T3 sequence (Q14703 187-997 limits assumed): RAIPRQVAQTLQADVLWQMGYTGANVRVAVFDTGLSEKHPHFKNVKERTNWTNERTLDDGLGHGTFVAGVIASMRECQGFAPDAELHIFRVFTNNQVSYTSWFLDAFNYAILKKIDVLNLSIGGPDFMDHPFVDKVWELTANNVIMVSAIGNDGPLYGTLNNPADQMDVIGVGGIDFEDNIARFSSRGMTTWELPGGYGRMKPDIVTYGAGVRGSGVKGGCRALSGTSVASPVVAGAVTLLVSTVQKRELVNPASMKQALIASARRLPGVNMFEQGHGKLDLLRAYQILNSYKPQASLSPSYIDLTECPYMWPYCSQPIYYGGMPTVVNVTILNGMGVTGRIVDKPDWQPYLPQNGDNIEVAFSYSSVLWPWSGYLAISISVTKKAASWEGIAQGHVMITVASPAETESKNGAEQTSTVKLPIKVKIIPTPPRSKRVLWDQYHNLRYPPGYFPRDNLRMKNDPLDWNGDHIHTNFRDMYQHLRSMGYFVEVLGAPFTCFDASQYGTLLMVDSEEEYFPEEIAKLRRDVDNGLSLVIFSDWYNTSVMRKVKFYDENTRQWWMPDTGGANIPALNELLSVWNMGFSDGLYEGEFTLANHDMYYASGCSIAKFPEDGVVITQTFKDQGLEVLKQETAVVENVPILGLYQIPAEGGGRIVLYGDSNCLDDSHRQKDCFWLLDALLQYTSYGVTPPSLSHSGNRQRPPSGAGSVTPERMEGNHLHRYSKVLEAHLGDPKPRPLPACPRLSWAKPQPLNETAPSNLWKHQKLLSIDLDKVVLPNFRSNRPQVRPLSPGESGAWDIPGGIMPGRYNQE
# Key:
# SKI-1 [1] = molecular target: T1, SKI-1; conditions: previously established (ref. 10); cited from earlier work
# SKI-1 [2] = molecular target: T1, SKI-1; assay: Example 6: synthetic peptides examined as possible substrates of recombinant SKI-1; type: biochemical; parameters: made in house
# From the text: A large number of synthetic peptides based on potential cleavage sites in the hSKI-1 prodomain, proBDNF and the loop region of SREBP-2 were synthesized.
# These peptides were examined as possible substrates of SKI-1.
# SKI-1 [3] = molecular target: T2, SKI-1; type: biochemical
# BTMD-hSKI-1 = molecular target: T3, BTMD-hSKI-1; type: biochemical
# [4] = substrate: CC(C)C[C@H](NC(=O)[C@@H](NC(=O)[C@H](CO)NC(=O)[C@H](CCCNC(=N)N)NC(=O)CNC(=O)[C@H](CO)NC(=O)CNC(=O)[C@H](CO)NC(=O)[C@H](Cc1c[nH]cn1)NC(=O)[C@@H]1CCCN1C(=O)[C@H](Cc1c[nH]cn1)NC(=O)[C@H](CCC(N)=O)NC(=O)[C@H](CC(=O)O)NC(=O)[C@H](CO)NC(=O)[C@H](CC(=O)O)NC(=O)[C@H](Cc1c[nH]cn1)NC(=O)[C@H](C)NC(=O)CNC(=O)CN)C(C)C)C(=O)N[C@@H](CO)C(=O)N[C@@H](Cc1ccccc1)C(=O)N[C@@H](CCC(=O)O)C(=O)N[C@@H](CO)C(=O)NCC(=O)N[C@@H](CO)C(=O)NCC(=O)NCC(=O)O; assay: purified protein, by the assay type; conditions: other: BTMD-SKI-1 medium, times giving 5–30% substrate hydrolysis; averages of duplicate assays; pH 6.5; 37.0 °C
# [5] = substrate: CC(C)C[C@H](NC(=O)[C@H](C)NC(=O)[C@H](CCCNC(=N)N)NC(=O)[C@H](CC(C)C)NC(=O)[C@H](CC(C)C)NC(=O)[C@H](CCCNC(=N)N)NC(=O)[C@H](CCCNC(=N)N)NC(=O)[C@@H](N)CO)C(=O)N[C@@H](CCC(=O)O)C(N)=O; assay: purified protein, by the assay type; conditions: other: BTMD-SKI-1 medium, times giving 5–30% substrate hydrolysis; averages of duplicate assays; pH 6.5; 37.0 °C
# [6] = substrate: CC(C)C[C@H](NC(=O)[C@H](C)NC(=O)[C@H](CCCNC(=N)N)NC(=O)[C@H](CC(C)C)NC(=O)[C@H](CC(C)C)NC(=O)[C@H](CCCNC(=N)N)NC(=O)[C@H](CCCNC(=N)N)NC(=O)[C@H](CO)NC(=O)[C@H](CO)NC(=O)[C@H](Cc1c[nH]cn1)NC(=O)[C@H](CCCNC(=N)N)NC(=O)CNC(=O)[C@@H](NC(=O)[C@H](C)NC(=O)[C@H](Cc1c[nH]cn1)NC(=O)[C@@H](N)Cc1c[nH]c2ccccc12)[C@@H](C)O)C(=O)N[C@@H](CCC(=O)O)C(N)=O; assay: purified protein, by the assay type; conditions: other: BTMD-SKI-1 medium, times giving 5–30% substrate hydrolysis; averages of duplicate assays; pH 6.5; 37.0 °C
molecule,measurement,setting,value
RSVL-MCA,cleavage of fluorogenic MCA peptides lacking P′ residues,SKI-1 [1],does not cleave
PQRKVFRSLKYAESD [IX],cleavage by the recombinant SKI-1,SKI-1 [2],efficiently cleaved
RGLTT-MCA,cleavage of fluorogenic MCA peptides lacking P′ residues,SKI-1 [1],does not cleave
RGLT-MCA,cleavage of fluorogenic MCA peptides lacking P′ residues,SKI-1 [1],does not cleave
"c1cnc2c(c1)ccc1cccnc12 [O-Phenanthroline, o-phenanthroline]",inhibition of the processing of proBDNF by SKI-1,SKI-1 [3]; at 1 mM,25%
same,inhibition of the processing of proBDNF by SKI-1,"SKI-1 [3]; overnight 37° C., pH 6.0, PMSF 0.5 mM + pAPMSF 50 μM, o-phenanthroline 5 mM, EDTA 10 mM",effectively inhibit
Ser-Ser-Arg-Arg-Leu-Leu↓Arg-Ala-Ile-Glu [(iv)],cleavage by the recombinant SKI-1,SKI-1 [2],efficiently cleaved
Ser-Gly-Ser-Gly-Arg-Ser-Val-Leu↓Ser-Phe-Glu-Ser [(x)],cleavage by the recombinant SKI-1,SKI-1 [2],efficiently cleaved
"˜14 kDa peptide: ˜14 kDa N-terminal fragment of the SKI-1 prosegment, major secreted form (protein) GKKHLGDRLEKKSFEKAPCPGCSHLTLKVEFSSTVVEYEYIVAFNGYFTAKARNSFISSALKSSEVDNWRIIPRNNPSSDYPSDFEVIQIKEKQKAGLLTLEDHPNIKRVTPQRKVFRSL",inhibitory activity of the RP-HPLC-fractionated native prosegment,BTMD-hSKI-1,not inhibitory
BTMD-hSKI-1 (Homo sapiens) (protein) RAIPRQVAQTLQADVLWQMGYTGANVRVAVFDTGLSEKHPHFKNVKERTNWTNERTLDDGLGHGTFVAGVIASMRECQGFAPDAELHIFRVFTNNQVSYTSWFLDAFNYAILKKIDVLNLSIGGPDFMDHPFVDKVWELTANNVIMVSAIGNDGPLYGTLNNPADQMDVIGVGGIDFEDNIARFSSRGMTTWELPGGYGRMKPDIVTYGAGVRGSGVKGGCRALSGTSVASPVVAGAVTLLVSTVQKRELVNPASMKQALIASARRLPGVNMFEQGHGKLDLLRAYQILNSYKPQASLSPSYIDLTECPYMWPYCSQPIYYGGMPTVVNVTILNGMGVTGRIVDKPDWQPYLPQNGDNIEVAFSYSSVLWPWSGYLAISISVTKKAASWEGIAQGHVMITVASPAETESKNGAEQTSTVKLPIKVKIIPTPPRSKRVLWDQYHNLRYPPGYFPRDNLRMKNDPLDWNGDHIHTNFRDMYQHLRSMGYFVEVLGAPFTCFDASQYGTLLMVDSEEEYFPEEIAKLRRDVDNGLSLVIFSDWYNTSVMRKVKFYDENTRQWWMPDTGGANIPALNELLSVWNMGFSDGLYEGEFTLANHDMYYASGCSIAKFPEDGVVITQTFKDQGLEVLKQETAVVENVPILGLYQIPAEGGGRIVLYGDSNCLDDSHRQKDCFWLLDALLQYTSYGVTPPSLSHSGNRQRPPSGAGSVTPERMEGNHLHRYSKVLEAHLGDPKPRPLPACPRLSWAKPQPLNETAPSNLWKHQKLLSIDLDKVVLPNFRSNRPQVRPLSPGESGAWDIPGGIMPGRYNQE,Km,[4],124 nM*1000
same,Vmax,[4],8.33e-06 µmol/min
same,Km,[5],109 nM*1000
same,Vmax,[5],1.83e-05 µmol/min
same,Km,[6],17 nM*1000
same,Vmax,[6],6.67e-06 µmol/min
